Series [1] can be described thus: Solubility / dissolution in poloxamer-CPE formulations. It counts as physicochemical.
Series [2] can be described thus: Systemic exposure: ciprofloxacin in plasma after gel application. The note with it: after hydrogel treatment. Type of series: in vivo, chinchilla. How it is done:
The blood levels of Cip were investigated by collection of plasma samples at predetermined intervals from the transverse sinuses of chinchillas after hydrogel treatment.
NTHi OM chinchilla model and pharmacokinetics. All procedures and manipulations were performed using sedation analgesia under isoflurane chamber induction followed by mask inhalation of 1-3% isoflurane in accordance with approved IACUC protocols at Boston Children's Hospital. […] Isolates of NTHi grown to the mid-log phase were diluted in Hanks' balanced salt solution (HBSS), and about 25 to 75 CFU in […] were directly introduced into each middle ear through the dorsal aspect of the tympanic bullae under aseptic conditions. […] Serial plasma samples were also obtained through the […] during the experiment to determine systemic drug levels.

The format of series [3] is in vivo, chinchilla. The note with it: healthy / OM infected chinchillas. The method, then:
Histopathology. Hydrogel formulations were administered onto the tympanic membrane of live healthy/OM chinchillas. After 7 days later, they were euthanized as described elsewhere. The TMs were then excised and immediately fixed in 10% neutral buffered formalin overnight. The sectioned TMs (˜10 μm thick) were stained with hematoxylin and eosin, and evaluated by light microscopy in a blinded fashion.

A further series deals with H. influenza. As to conditions: stated without test or source; cited from earlier work.
In another series the test system is S. pneumoniae. The note with it: stated without test or source; cited from earlier work.

The values that follow come from patent publication US20230270749A1, “THERMO-SENSITIVE PERMEATION ENHANCING FORMULATIONS FOR DRUG DELIVERY” (Children's Medical Center Corporation, priority 2020, published 2023).

As to `CO/N=C(\C(=O)N[C@@H]1C(=O)N2C(C(=O)O)=C(CSc3nc(=O)c(=O)[nH]n3C)CS[C@H]12)c1csc(N)n1` [CTX, ceftriaxone sodium], the “highest amount of CTX that can be dissolved in the P188-CPEs formulation while maintaining the desired rheological properties” value in series [1] is listed as 42.6%. Also, the “highest amount of CTX that can be dissolved in the P188-CPEs formulation as a powder form within a short time (<1 minute)” value in series [1] (powder form, <1 minute) is reported as 28%.

As for `O=C(O)c1cn(C2CC2)c2cc(N3CCNCC3)c(F)cc2c1=O` [ciprofloxacin], the “ciprofloxacin in the bloodstream at any time point throughout the course of treatment” value was “no Ciprofloxacin was detectable” in series [2] and “no Cip was detectable” in series [2] (listed as Cip). In addition, in series [3], the “appearance of H&E-stained TM sections after 7 days” value is on record as “much thicker than healthy TM”. Also, the “minimum inhibitory concentration for middle ear infections” value in the series with H. influenza and in the series on S. pneumoniae was “about 4 μg/mL” in each case.
